In patent US6284734A, “Inhibitors against prostate-specific antigen” (JCR Pharmaceuticals Co., Ltd., priority 1997, dated 2001):
No end group written: not given here.

Columns and labels:
PSA [1] = biological target: T1, PSA (Homo sapiens, UniProt P07288); assay: Degradation of r-IGFBP3 by PSA, SDS electrophoresis and Western blotting with densitometry; format: biochemical; conditions: relative to r-IGFBP3 alone (100.0); r-IGFBP3 + PSA 50.0; 4 nmol Peptide 4
T1 construct: Using PSA as purified from human urine or seminal plasma; from tissue; host or cells: human urine or seminal plasma
T1 sequence (P07288 25-261): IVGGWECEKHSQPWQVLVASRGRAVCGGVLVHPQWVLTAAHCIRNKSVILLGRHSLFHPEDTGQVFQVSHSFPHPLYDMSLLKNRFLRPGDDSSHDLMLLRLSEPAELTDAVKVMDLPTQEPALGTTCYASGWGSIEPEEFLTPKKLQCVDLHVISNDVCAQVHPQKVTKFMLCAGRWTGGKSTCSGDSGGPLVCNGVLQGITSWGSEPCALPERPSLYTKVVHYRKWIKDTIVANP
Procedure: And PSA degrades r-IGFB3 into fragments, whereby its degradation process can be confirmed by means of SDS-electrophoresis and Western blotting.
A specimen was prepared by dissolving 0.57 μg of PSA and 2.0 μg of r-IGFBP3 (manufactured by Upstate Co. of USA) in 0.1M Tris-hydrochloride buffer (pH 8.0), followed by reaction at 37° C. for 16 hrs, while another specimen was prepared by dissolving 0.57 μg of PSA, 2.0 μg of r-TGFBP3 (manufactured by Upstate Co. of USA) and 4 nmol of Peptide 4 in 0.1M Tris-hydrochloride buffer (pH 8.0), followed by reaction at 37° C. for 16 hrs. Each of the specimens was subjected to a 4 to 20% gradient gel to conduct SDS electrophoresis under non-reduction in the conditions described by Laemmli et al. (Iqature, 227: 680-685, 1970). After electrophoresis, separated proteins were transferred to a nitrocellulose membrane to carry out Western blotting using anti-IGFBP3 antibody (produced by Biogenesis Co. of USA) as a primary antibody and anti-rabbit antibody (produced by Promega Co. of USA) labeled with horseradish peroxidase (HRP) as a secondary antibody. The HRP activity was detected by chemiluminescence (Renaissance Western Blot Chemiluminescence Reagent, NEN™ produced by Life Science Products Co. of USA), and the protein bands as detected were quantitatively determined by use of a densitometer.

PSA [2] = biological target: T1, PSA; assay: PSA activity assay with Pro-Phe-Arg-MCA substrate, residual activity in coexistence of peptides; format: biochemical; conditions: enzyme added PSA, 100% without any Peptide
Procedure: Then, investigation was conducted into whether or not these peptides act to inhibit the PSA activity.
While using […] of 100 μM or 10 μM Pro-Phe-Arg-MCA (supplied by Peptide Research. Institute of Japan) as a substrate, 0.1 ml of 100 μM of each of Peptides 1 to 5 was mixed with the substrate and 0.7 ml of 0.1M Tris-hydrochloride buffer (pH 8.0) to allow the reaction to proceed at 37° C. for 5 min, followed by addition of 0.1 ml of 0.12 mg/ml PSA solution. The reaction solution was subjected to time-course measurement of fluorescence intensity (Ex380 nm, Em460nm) at 37° C. for 3 min, and the inhibitory activity value was determined from a slope of the straight line. […] In the above experiments, Pro-Phe-Arg-MCA, Peptides 1 to 5 PSA and kallikrein were used after being dissolved in 0.1M Tris-hydrochloride buffer (pH 8.0).
These findings are in good agreement with the fact that PSA a protease belonging to the kallikrein family .

[3] = column A, Substrate:Peptide molar ratio 1:1
[4] = column B, Substrate:Peptide molar ratio 1:10

Sequence	Residual rate % of the 50 kDa band (PSA [1]) [%]	Residual activity rate (%) after addition of Peptides (PSA [2]; [3]) [%]	Residual activity rate (%) after addition of Peptides (PSA [2]; [4]) [%]
GFYKKKQSR [Peptide 4, Gly(217)-Phe-Tyr-Lys-Lys-Lys-Gln-Ser-Arg(225)]	65.1	66.5	46.6
LNHLKFLNVL [Peptide 3, Leu(194)-Asn-His-Leu-Lys-Phe-Leu-Asn-val-Leu(203)]	–	83.5	73.3
PSKGRKRGFM [Peptide 5, Pro(226)-Ser-Lys-Gly-Arg-Lys-Arg-Gly-Phe-Met(235)]	–	75.1	84.8
VNASAVSRLRAYLLP [Peptide 1, val(88)-Asn-Ala-Ser-Ala-Val-Ser-Arg-Leu-Arg-Ala-Tyr-Leu-Leu-Pro(102)]	–	107.4	100.7
VSSTHRVSDPKF [Peptide 2, Val(127)-Ser-Ser-Thr-His-Arg-Val-Ser-Asp-Pro-Lys-Phe(138)]	–	87.5	104.8
